ChEMBL document CHEMBL3832076, “Goodman and Gilman Ed. 10 | The Pharmaceutical Basis of Therapeutics| Table A-II-I: Pharmacokinetic Data” (2001)

Legend:
[1] = Pharmacokinetic parameters for different drugs following multiple oral or intravenous administration in healthy subjects.; format: ADME, organism-based; set-up: dose 200 mg/day, route oral; conditions: human, in vivo, dosed compound id 68, dosed compound name IMIPRAMINE HYDROCHLORIDE, regimen Repeated dose, study dosing duration 4 weeks, tissue Plasma
[2] = Pharmacokinetic parameters for different drugs following single oral or intravenous administration in healthy subjects.; conditions: human, in vivo, 100 mg

| Cmax ([1]; po, 200 mg/day) | Tmax ([1]; dose 200 mg/day, route oral) | Vd ([2]; iv) | bioavailability ([2]; iv) | dose excreted ([2]; iv) | half-life ([2]; iv) | Tmax ([2]; im) | bioavailability ([2]; inhaled or intranasal) | clearance ([2]; iv) | Cmax ([2]; po, Cmax) | SMILES |
| --- | --- | --- | --- | --- | --- | --- | --- | --- | --- | --- |
| 200 ng/mL | 2 to 6 h | 18 L/kg | 42% | 2% | 16 h | – | – | – | – | CN(C)CCCN1c2ccccc2CCc2ccccc21.Cl [IMIPRAMINE HYDROCHLORIDE] |
| – | – | 0.33 L/kg | – | 90% | 2.2 h | 0.3 h | 9% | 0.98 mL/min/kg | 4600 ng/mL | NC[C@H]1O[C@H](O[C@H]2[C@H](O)[C@@H](O[C@H]3O[C@H](CO)[C@@H](O)[C@H](N)[C@H]3O)[C@H](N)C[C@@H]2N)[C@H](N)C[C@@H]1O [TOBRAMYCIN] |
